Laboratory results as given in patent publication US20260053790A1, “TREATMENTS FOR CONDITIONS INVOLVING INCREASED IL-6 LEVELS” (X4 Pharmaceuticals, Inc., priority 2022, published 2026).

Experiments:
[1] = in vivo; details: Terminal half-life
Method: In certain embodiments, the dosage composition may be provided twice a day in divided dosage, approximately 12 hours apart. In other embodiments, the dosage composition may be provided once daily. […] Dosage for oral administration may be from about 100 mg to about 1200 mg once or twice per day.

[2] = Solubility of mavorixafor by pH and in water; format: physicochemical
Method: Mavorixafor (formerly designated X4P-001 and AMD11070) is a CXCR4 antagonist, with molecular formula C21H27N5; molecular weight 349.48 amu; and appearance as a white to pale yellow solid. Solubility: freely soluble in the pH range 3.0 to 8.0 (>100 mg/mL), sparingly soluble at pH 9.0 (10.7 mg/mL) and slightly soluble at pH 10.0 (2.0 mg/mL). […] Melting point: 108.9° C.

[3] = tested on: WM cells; assay: Co-culture of BMSC with WM cells: BM stroma-induced IgM hypersecretion; format: cell-based; details: FIG. 2
[4] = tested on: IL-6; assay: IL-6 overexpression and hypersecretion (co-culture of BMSC with WM cells); format: cell-based; details: mavorixafor as a single agent
[5] = tested on: WM cells; assay: Soluble IL-6 treatment of WM cells in the absence of BMSC: CXCR4 expression and IgM secretion; format: cell-based; details: blockade of IL-6/IL6R/STAT3 axis, FIG. 3
Source text: FIG. 3: Even in the Absence of BMSC, Soluble IL-6 Upregulates CXCR4 Expression & IgM Secretion in WM Cells; which is Prevented by Blockade of IL-6/IL6R/STAT3 Axis. BP-1-102 is a STAT3 inhibitor.

| half-life [1] [h] | solubility ([2]; aqueous buffer, pH range 3.0 to 8.0 (freely soluble)) [mg/mL] | Solubility in water ([2]; water) | SMILES | Bone marrow stroma-induced IgM hypersecretion in WM cells [3] | Overexpression and hypersecretion of IL-6 [4] | Soluble IL-6-induced upregulation of CXCR4 expression in WM cells [5] | Soluble IL-6-induced upregulation of IgM secretion in WM cells [5] |
| --- | --- | --- | --- | --- | --- | --- | --- |
| 12 to 24 | > 100 | only slightly soluble | NCCCCN(Cc1nc2ccccc2[nH]1)[C@H]1CCCc2cccnc21 [Mavorixafor, mavorixafor] | blocks | significantly reduces |  |  |
|  |  |  | CN(CC(=O)N(Cc1ccc(C2CCCCC2)cc1)c1ccc(C(=O)O)c(O)c1)S(=O)(=O)c1c(F)c(F)c(F)c(F)c1F [BP-1-102] |  |  | Prevented | Prevented |
